In patent publication US20220249399A1, “COMPOSITION COMPRISING AN ANTI-OXIDANT TO PRESERVE CORNEAL TISSUE” (University of lowa Research Foundation, priority 2019, published 2022):
Entries after “also recorded” stand apart in the source; their conditions may differ. Where a name gives a salt, the structure may show the parent alone.

Columns and labels:
[1] = tested on: immortalized human corneal endothelial cells; assay: Seahorse XFe24 mitochondrial respiration of immortalized human corneal endothelial cells grown in hyperglycemic medium; type: cell-based; details: 25 days of growth in 5.5-13.0 mM glucose, n=18, P<0.0001
Experimental: (§1) FIG. 40. Mitochondrial respiration assay using Seahorse XFe24 extracellular flux analyzer of immortalized human corneal endothelial cells following 25 days of growth in 5.5-13.0 mM glucose and treated with 8.3 μM PQQ (n=18). Maximal respiration and spare respiratory capacity are lowered in HCECs (P<0.0001) due to hyperglycemic growing conditions.
as §1, with “41.” for “40.”, “1.0 mM NAC” for “8.3 μM PQQ”

[2] = tested on: primary cultures of corneal endothelial cells; assay: Seahorse XFe96 mitochondrial respiration of primary cultures of corneal endothelial cells; type: cell-based, human
Experimental: (§2) Human corneas were obtained by Iowa Lions Eye Bank (ILEB) from nondiabetic donors 60-75 years old and stored in Optisol GS (Bausch+Lomb, Irvine, Calif.) at 4° C. following procurement in accordance with Eye Bank Association of America and ILEB policies and procedures. Endothelial cells were isolated and cultured in Seahorse XFe96 well plates until they reached confluency. Purity of cell cultures were confirmed with anti-zonula occludens 1 (ZO-1) labeling of cellular tight junctions. Once confluent, cells were treated with different concentrations of cyclodextrin-coenzyme Q10 complex in culture (1 μM, 10 μM, or 100 μM) uncomplexed coenzyme Q10 (100 μM), cyclodextrin alone, or diluent control. Mitochondrial respiration was assayed by measuring oxygen consumption using the Seahorse XFe96 Extracellular Flux Analyzer (Agilent Technologies, Santa Clara, Calif.) over 120 minutes (9-minute intervals). Wells were labeled with a nuclear counterstain (DAPI) and nuclei were counted in each well to normalize respirometry data.
Seahorse respiration assays were conducted with MitoQ with doses ranging from 0 to 10 μM. All experiments were performed on corneal endothelial cells in culture and analyzed using the XFe96 Extracellular Flux Analyzer.
as §2, with “MitoQ with doses ranging from 0 to” for “different concentrations of cyclodextrin-coenzyme Q10 complex in culture (1 μM,”, “μM.” for “μM, or 100 μM) uncomplexed coenzyme Q10 (100 μM), cyclodextrin alone, or diluent control.”

[3] = tested on: human donor corneal endothelial cells; assay: Mitochondrial respiration assay (Seahorse XFe24 extracellular flux analyzer) of donor corneal endothelium after storage in supplemented Optisol GS; type: cell-based; details: 1 mM ascorbate-2-phosphate
Experimental: Human corneal tissue pairs were obtained by Iowa Lions Eye Bank (ILEB) from nondiabetic donors 60-75 years old and stored in Optisol GS (Bausch+Lomb, Irvine, Calif.) at 4° C. following procurement in accordance with Eye Bank Association of America and ILEB policies and procedures. For 5 days prior to testing, but within 9 days of procurement, one stored tissue from a corneal pair was treated with 10 μM CoQ10, while the mate tissue was treated with diluent only as a control. Descemet membrane and endothelial cell punches were collected and mounted onto the bottom of a Seahorse assay plate (cells facing upward). Mitochondrial respiration was assayed by measuring oxygen consumption using the Seahorse XFe24 Extracellular Flux Analyzer (Agilent Technologies, Santa Clara, Calif.) over 120 minutes (9-minute intervals). Punches were labeled with a nuclear counterstain (DAPI) and remaining tissues were mounted onto slides and labeled with 488A-Annexin V, Ethidium Homodimer III, and Hoechst 33342 (Apoptotic, Necrotic, and Healthy Cells Quantification Kit; Biotium, Fremont, Calif.) to assay cell health. Nuclei were counted in each punch to normalize respirometry data. Immunohistochemistry densitometry was measured using ImageJ software.
Human donor whole globe eye pairs were obtained by Iowa Lions Eye Bank (ILEB) and the anterior portion of the eyes were removed. For 14 days, one cornea was stored from a corneal pair treated with 1 mM ascorbate-2-phosphate, while the mate tissue was treated with diluent only as a control. Descemet membrane and endothelial cell punches were collected and mounted onto the bottom of a Seahorse assay plate (cells facing upward). Mitochondrial respiration was assayed by measuring oxygen consumption using the Seahorse XFe24 Extracellular Flux Analyzer (Agilent Technologies, Santa Clara, Calif.) over 120 minutes (9-minute intervals). Punches were labeled with a nuclear counterstain (DAPI) and nuclei were counted in each punch to normalize respirometry data. […]
Tissue preparation and extracellular flux assays for mitochondrial respiration were performed as described in Greiner et al. (2015). In brief, after pre-stripping the EDM, 3 mm diameter EDM punches were mounted in wells of a XF24 microplate (Agilent Technologies, Santa Clara, Calif.). After acclimation for one hour at 37° C. in non-buffered assay media, metabolic activity of the EDM samples was quantified using a commercial kit (XF Cell Mito Stress Test Kits; Agilent Technologies) on a Seahorse XFe24 extracellular flux analyzer (Agilent Technologies). Following extracellular flux analysis, tissues were labeled fluorescently using a 1:1000 Sytox Green nucleic acid stain in the microtiter plate (Life Technologies, Grand Island, N.Y.) and imaged on an Olympus IX-81 inverted microscope (Olympus America, Center Valley, Pa.) using a FITC filter. Cell counts were determined using Image J (https://imagej.nih.gov/ij/download.html) and used to compute the oxygen consumption rate per cell (OCR; pmole/min/cell). Raw OCR values were used to calculate several different key parameters of metabolic function per manufacturer's directions (Agilent Technologies), as in Aldrich et al. (2017). The parameters and calculations used in this study were the main outcome measures, including basal respiration, ATP-associated oxygen consumption, proton [H^+] leak, maximal respiration, spare respiratory capacity, non-mitochondrial respiration, and coupling efficiency as described in Schneider et al. and Goldstein et al. (2018).
Mitochondrial Respiration Assay: 3 mm punches of central and peripheral endothelium-Descemet membrane complex (EDM) were secured to the bottom of cell culture microplate wells or CECs were grown directly onto microplate.

[4] = MitoQ 0 to 10 μM (data not shown)
[5] = MitoQ 0 to 10 μM, control vs 10 μM P<0.001, n=3

## O=C(O)c1cc(C(=O)O)c2c(n1)C(=O)C(=O)c1cc(C(=O)O)[nH]c1-2 [PQQ, pyrroloquinoline quinone]
[1]; 8.3 μM PQQ
  maximal respiration and spare respiratory capacity lowered by hyperglycemic growing conditions: mitigates this effect

## cyclodextrin [cyclodextrin alone]
[2]; uncomplexed coenzyme Q10 (100 μM) or cyclodextrin alone vs diluent control
  mitochondrial spare respiratory capacity: reduces the mitochondrial spare respiratory capacity

## CC(=O)N[C@@H](CS)C(=O)O [NAC, N-Acetyl-L-cysteine]
[1]; 1.0 mM NAC
  maximal respiration and spare respiratory capacity lowered by hyperglycemic growing conditions: mitigates this effect

## COC1=C(OC)C(=O)C(CCCCCCCCCC[P+](c2ccccc2)(c2ccccc2)c2ccccc2)=C(C)C1=O [MitoQ, mitoquinone mesylate]
[2]; [4]
  basal respiration: dose dependent reductions
  maximal respiration: dose dependent reductions
  non-mitochondrial respiration: not influenced
  proton leak: not influenced
[2]; [5]
  ATP linked oxygen consumption (ATP linked respiration): dose dependent decrease; also recorded: significantly different
  spare respiratory capacity: dose dependent decrease; also recorded: significantly different
[2]; escalating doses of MitoQ, 0 to 10 μM
  respiratory function: dose dependent decrease in respiratory function; also recorded: decreased in respiratory function

## ascorbate-2-phosphate
[3]
  corneal endothelial cell mitochondrial respiration: did not affect corneal endothelial cell mitochondrial respiration
[3]; 14 days storage, 5 paired corneas, p-value=0.053
  non-mitochondrial respiration, higher level than untreated control cells: 21%
